Data set [1] deals with H358. non-small cell lung cancer line bearing KRas^G12C oncogenic mutation. As to the kind of experiment: Antiproliferative MTS assay, H358 cells. Type of data set: cell-based. The following applies: Homo sapiens, NCI-H358, 72 h, compounds 1-23, 47-52 and Reference Example 1 median of experiments, 24-46 estimations and/or preliminary results, read-out: IC50 values: cell proliferation inhibition, H358. As for the experimental part: Cell line #2: H358. non-small cell lung cancer line bearing KRas^G12C oncogenic mutation
(§1) Cell lines were cultured in DMEM or RPMI-1640 supplemented with FBS 10%. In order to assess the antiproliferative effect of compounds, cells were seeded at a density of 1.8×10^3, 6.2×10^3, 7.8×10^3, 21×10^3 and 2×10^3 cells/cm^2, respectively, in tissue culture microplates and were incubated in humidified atmosphere at 5% CO2. 24 h later, compounds dissolved in DMSO 100% were added for different final concentrations ranging between 0.1 and 50 μM for a final DMSO concentration of 0.5% and the plates were incubated for another 72 h. After incubation, proliferation was quantified using CellTiter 96® Aqueous Non-Radioactive Cell Proliferation Assay-MTS (Promega #G5421) following manufacturer instructions. Amount of 490 nm absorbance is directly proportional to the number of living cells. Absorbance was recorded with a BMG Fluostar Optima Microplate Reader and normalized to control with vehicle.

Data set [2] concerns PANC-1. epithelioid carcinoma of the pancreas cell line bearing KRas^G12D oncogenic mutation. As to the kind of experiment: Antiproliferative MTS assay, PANC-1 cells. The format is cell-based. As to conditions: Homo sapiens, PANC-1, 72 h, compounds 1-23 and 47-52 median of experiments, 24-46 estimations and/or preliminary results, read-out: IC50 values: cell proliferation inhibition, Panc-1. The method, then: Cell line #3: PANC-1. epithelioid carcinoma of the pancreas cell line bearing KRas^G12D oncogenic mutation
as §1

The test system of data set [3] is RPMI. myeloma cell line bearing KRas^G12A oncogenic mutation. As to the kind of experiment: Antiproliferative MTS assay, RPMI cells. The following applies: 72 h, compounds 1-23 and 47-52 median of experiments, 24-46 estimations and/or preliminary results, read-out: IC50 values: cell proliferation inhibition, RPMI. Type of data set: cell-based. The method, then:
Cell line #4: RPMI. myeloma cell line bearing KRas^G12A oncogenic mutation
as §1

Data set [4] has as its system A549. Lung carcinoma cell line bearing KRas^G12S oncogenic mutation. As to the kind of experiment: Antiproliferative MTS assay, A549 cells. The format is cell-based. The following applies: Homo sapiens, A549, 72 h, compounds 1-23 and 47-52 median of experiments, 24-46 estimations and/or preliminary results, read-out: IC50 values: cell proliferation inhibition, A549. The method, then:
Cell line #1: A549. Lung carcinoma cell line bearing KRas^G12S oncogenic mutation
as §1

The test system of data set [5] is NIH-H358 Cell Line. Kind of data set: 3D CellTiter-Glo cell viability assay. Type of data set: cell-based. As to conditions: 168 h, NIH-H358 cells in 0.65% methylcellulose, 7 days' compound treatment. The method, then:
Example 5: Efficacy Testing in 3D Viability Assay for NIH-H358 Cell Line
The protocol to perform 3D CellTiter-Glo™ cell viability assay is as follows:
Day—1: Cell plating • Adjust cell concentrations to 1×10^5 cells/ml with respective medium. (Cell concentration is adjusted according to data base or density optimization assay). Mix 3.5 mL of cell suspension 6.5 mL of 1% methylcellulose. Mix and wait for bubbles to disperse before pipetting. This step yields 10 ml of cell suspension in 0.65% methylcellulose solution. Add 99.5 μL cell suspensions to 96-well plates according to plate map with final cell density. • Two duplicate plates will be set up. One is for day 0 reading (T0) and the other will be cultured in incubator for reading at the end point. • Incubate the plates overnight in humidified incubator at 37° C. with 5% CO2.
Day 0: T0 plate reading and compound treatment • Take T0 plate, add 0.5 μL culture medium to each well for T0 reading. • Add 100 μl CellTiter-Glo® Reagent to each well. • Mix contents for 2 minutes on an orbital shaker to facilitate cell lysis. • Allow the plate to incubate at room temperature for 10 minutes to stabilize luminescent signal. • Record luminescence using EnVision Multi Label Reader. • Dilute the test articles at the concentration indicated at Test Articles Dilution. Add 0.5 μL of each 200× compound working solutions according to plate inoculation map.
Day 7: Plate reading of 7 days' compound treatment • Add 100 μL CellTiter-Glo® Reagent to each well. • Mix contents for 2 minutes on an orbital shaker to facilitate cell lysis. • Allow the plate to incubate at room temperature for 10 minutes to stabilize luminescent signal. • Record luminescence using EnVision Multi Label Reader.
(In general: ATP-based viability assays read luminescence as a measure of living cells.)

In data set [6] the test system is subcutaneous NCI-H358 Human Lung Cancer Model. Kind of data set: Efficacy in xenograft studies (tumor growth inhibition). The format is in vivo, NCr nude mice. As to conditions: for Oral anti-tumor activity: 20 mg/kg BID peroral, subcutaneous NCI-H358 xenograft; for TGI (tumor growth inhibition): NCI-H358 xenograft, NCr nude mice. An excerpt:
(§2) Evaluation of the efficacy of compounds 6, 11 and 13 in the treatment of subcutaneous NCI-H358 Human Lung Cancer Model in NCr nude mice.
(§3) The treatment with compound 6 started when the tumors size reached 170 mm^3 (study 1). This value was 190 mm^3 in the case of compounds 11 and 13 (study 2).
Studies endpoints: The major endpoints of the study included the following:
Tumor growth inhibition (TGI): TGI(%) is an indication of antitumor effectiveness, and it is expressed as: TGI (%)=100×(1−T/C). T and C were the mean tumor volume of the treated and control groups, respectively, on a given day.

Data set [7] is described as follows: Body weight and tolerability in xenograft studies. Type of data set: in vivo. As to conditions: 20 mg/kg BID peroral, mice bearing NCI-H358 xenograft.
Excerpt: as §2, §3
The results of the body weight changes in the tumor bearing mice are shown in FIG. 1 (p.o. is peroral; i.p. is intraperitoneal). The body weight of the animals at the end of the treatment with the three compounds was only slightly below the body weight of the respective vehicle control groups.

[8] abbreviates: Study 2: 20 mg/kg peroral BID × 27 days.

Regarding `CCNC(=O)N1CCc2cc(OC)c(OCCc3ccc(OC)c(N)c3)cc2C1c1ccc(C)cc1C` (stereo not drawn) [Compound 6, 7-(3-amino-4-methoxyphenethoxy)-1-(2,4-dimethylphenyl)-N-ethyl-6-methoxy-3,4-dihydroisoquinoline-2(1H)-carboxamide], the IC50 is 200 nM in data set [1]; 200 nM in data set [2]; 100 nM in data set [3]; 600 nM in data set [4]; 125 nM in data set [5]. In data set [6], the Oral anti-tumor activity result is “significant oral anti-tumor activities”. The “TGI (tumor growth inhibition)” value in data set [6] (Study 1: 20 mg/kg peroral BID × 29 days) was 27.09%. The “Tolerability / safety of dose” value in data set [7] was “tolerate 20 mg/kg BID and safe”.

Turning to `CCNC(=O)N1CCc2cc(OC)c(OCCc3ccc(OC)c(N)c3)cc2C1c1ccc(OC)cc1C` (stereo not drawn) [Compound 11], the IC50 in data set [1] is 200 nM; in data set [2], 200 nM; in data set [3], 100 nM; in data set [4], 800 nM; in data set [5] it was 413 nM. Besides, the Oral anti-tumor activity entry in data set [6] was “significant oral anti-tumor activities”. For the same molecule, in data set [6] (setting [8]), the “TGI (tumor growth inhibition)” value amounted to 48.22%. Also, the “Tolerability / safety of dose” value in data set [7] was “tolerate 20 mg/kg BID and safe”.

As for `CCNC(=O)N1CCc2cc(OC)c(OCCc3ccc(OC)c(N)c3)cc2C1c1ccc(Cl)cc1C` (stereo not drawn) [Compound 13], the IC50 in data set [1] was 300 nM; in data set [2], 300 nM; in data set [3] it was 100 nM; in data set [4] it was 1000 nM; in data set [5], 147 nM. Moreover, in data set [6], the Oral anti-tumor activity entry is on record as “significant oral anti-tumor activities”. In addition, the “TGI (tumor growth inhibition)” value in data set [6] (setting [8]) was 26.99%. Besides, the “Tolerability / safety of dose” value in data set [7] is “tolerate 20 mg/kg BID and safe”.
